Data from article PMC11603075 (Communications Biology, 2024).

Target: T1, KDM5C (Homo sapiens, UniProt P41229)
T1 construct: KDM5C 1– 765; made in house; host or cells: Sf9 cells
T1 sequence (P41229 1-765): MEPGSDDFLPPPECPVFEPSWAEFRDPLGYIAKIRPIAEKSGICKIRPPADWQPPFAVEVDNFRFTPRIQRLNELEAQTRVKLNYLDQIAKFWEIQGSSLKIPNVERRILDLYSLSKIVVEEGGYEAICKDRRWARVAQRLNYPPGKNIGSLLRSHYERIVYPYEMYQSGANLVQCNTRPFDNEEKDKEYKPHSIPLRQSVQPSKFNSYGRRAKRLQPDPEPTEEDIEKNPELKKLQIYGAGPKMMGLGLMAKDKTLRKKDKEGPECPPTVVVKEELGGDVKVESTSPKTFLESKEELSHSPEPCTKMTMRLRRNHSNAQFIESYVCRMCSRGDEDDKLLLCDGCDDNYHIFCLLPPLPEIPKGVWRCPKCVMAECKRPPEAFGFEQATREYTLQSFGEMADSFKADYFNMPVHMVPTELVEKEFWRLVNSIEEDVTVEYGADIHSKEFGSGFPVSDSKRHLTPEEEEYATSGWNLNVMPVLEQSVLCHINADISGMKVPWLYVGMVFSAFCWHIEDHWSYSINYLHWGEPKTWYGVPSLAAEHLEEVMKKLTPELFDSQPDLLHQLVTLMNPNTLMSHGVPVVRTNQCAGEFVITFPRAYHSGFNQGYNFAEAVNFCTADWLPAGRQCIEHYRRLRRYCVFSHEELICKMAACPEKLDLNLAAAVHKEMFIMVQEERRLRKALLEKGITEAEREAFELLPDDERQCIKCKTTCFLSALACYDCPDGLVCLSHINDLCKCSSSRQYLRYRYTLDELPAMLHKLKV
Assay: MALDI–TOF MS time course / specific activity, KDM5C
Assay type: biochemical
Conditions: for specific activity: KDM5C
Protocol: MS-based screening assays with peptides and calf thymus histones were as reported; see Supplementary Table 6 for conditions. Time course assays were based on reported procedures. In brief, equal volumes of the enzyme and substrate solutions were combined to initiate the reaction; 10 µL of 2% (v/v) formic acid (HCOOH) in ddH2O or 100% methanol was added to 10 µL of the reaction mixture to quench reactions at different time points. Unless otherwise stated, time course assays were carried out in triplicate. In some cases, LC–MS was used instead of MALDI-TOF MS to avoid a MALDI matrix induced artefact with the hydroxylated product (Supplementary Fig. 16).
Data collected from time course assay(s) were used to plot the % conversion vs time (min) using GraphPad Prism5 version 5.04; the resultant slopes were used to fit a line with linear regression to the first-order region of the reaction. The resultant gradient was then converted from % product formation min^−1 to amount of peptide converted (demethylation and / or hydroxylation) in µM.
Supplementary Figure 4 Activity of KDM5C (black circles) with H2a(1–20)R3me2a is greater than that of KDM4E (white circles). (a) A MALDI–TOF MS time course graph of product formation (%) of KDM4E ( −14 Da/+16 Da) and KDM5C (−14 Da) reaction with H2a(1–20)R3me2a versus time (minutes). ~60% substrate depletion was reached after 105 minutes with KDM4E; ~95% of H2a(1–20)R3me2a was demethylated after 1 05 minut e s wit h K DM5 C. (b ) Comparison of specific activities of KDM4E with H2a(1–20)R3me2a (0.15 […]
bars; +/- SD; n = 3 (independent assays). See Supplementary Table 6 for assay condit ions.
(also on this page, place not known: 105 minutes KDM5C. (b) H2a(1 –20)R3me2a with conditions. specific activity (pmol·min-1·μM-1))
(1 picture or pasted object on this page, not shown here)
[ E nz ym e] [Peptide] [2OG] [Ascorbate] [(NH4)2F e(S O4)2] [TCEP] Buffer pH7.5 Enzyme Cognate substrate (mM) (mM) (mM) (mM) (mM) (mM) [HE PE S]
Supplementary Table 6 Summary of MS assay conditions for substrate screening. These conditions enabled efficient turnover of established substrates. Reactions were carried out at 37 °C unless otherwise st ated. […]

## Ac - SGR [ me 2a ] GKQ GGKAR AKAKT R SSR [H2a(1–20)R3me2a, H2a(1–20)R3me2a without a biotin tag]
0 min, replicate 1
  product formation (−14 Da): 0%
0 min, replicate 2
  product formation (−14 Da): 0%
0 min, replicate 3
  product formation (−14 Da): 0%
5 min, replicate 1
  product formation (−14 Da): -4.611%
5 min, replicate 2
  product formation (−14 Da): 1.214%
5 min, replicate 3
  product formation (−14 Da): 6.766%
15 min, replicate 1
  product formation (−14 Da): 6.633%
15 min, replicate 2
  product formation (−14 Da): 6.871%
15 min, replicate 3
  product formation (−14 Da): 19.5603%
30 min, replicate 1
  product formation (−14 Da): 38.5829%
30 min, replicate 3
  product formation (−14 Da): 44.7254%
45 min, replicate 1
  product formation (−14 Da): 64.1732%
45 min, replicate 2
  product formation (−14 Da): 64.8428%
45 min, replicate 3
  product formation (−14 Da): 72.262%
60 min, replicate 1
  product formation (−14 Da): 81.9609%
60 min, replicate 2
  product formation (−14 Da): 81.6263%
60 min, replicate 3
  product formation (−14 Da): 82.8852%
75 min, replicate 1
  product formation (−14 Da): 85.9119%
75 min, replicate 2
  product formation (−14 Da): 87.0734%
75 min, replicate 3
  product formation (−14 Da): 90.3242%
90 min, replicate 1
  product formation (−14 Da): 92.0497%
90 min, replicate 2
  product formation (−14 Da): 90.1323%
90 min, replicate 3
  product formation (−14 Da): 97.0348%
105 min, replicate 1
  product formation (−14 Da): 95.3885%
105 min, replicate 2
  product formation (−14 Da): 93.3144%
105 min, replicate 3
  product formation (−14 Da): 100%
Mean of n = 3, SD 0.006
  specific activity: 0.37 pmol min^−1 µM^−1
Repeat 1
  specific activity: 0.3803 pmol·min-1·μM-1
Repeat 2
  specific activity: 0.3775 pmol·min-1·μM-1
Repeat 3
  specific activity: 0.3654 pmol·min-1·μM-1
Ratio of specific activities
  RDM activity of KDM5C relative to KDM4E (times): 2.5 times
